Data from ChEMBL document CHEMBL2203036, “Discovery of 1-[2-(2,4-dimethylphenylsulfanyl)phenyl]piperazine (Lu AA21004): a novel multimodal compound for the treatment of major depressive disorder” (J Med Chem, 2011).

Biological target: 5-hydroxytryptamine receptor 2C (Homo sapiens) (UniProt P28335)
Test: Binding affinity to human 5HT2C receptor

5-hydroxytryptamine receptor 2C (Homo sapiens), sequence (P28335 whole entry, looked up): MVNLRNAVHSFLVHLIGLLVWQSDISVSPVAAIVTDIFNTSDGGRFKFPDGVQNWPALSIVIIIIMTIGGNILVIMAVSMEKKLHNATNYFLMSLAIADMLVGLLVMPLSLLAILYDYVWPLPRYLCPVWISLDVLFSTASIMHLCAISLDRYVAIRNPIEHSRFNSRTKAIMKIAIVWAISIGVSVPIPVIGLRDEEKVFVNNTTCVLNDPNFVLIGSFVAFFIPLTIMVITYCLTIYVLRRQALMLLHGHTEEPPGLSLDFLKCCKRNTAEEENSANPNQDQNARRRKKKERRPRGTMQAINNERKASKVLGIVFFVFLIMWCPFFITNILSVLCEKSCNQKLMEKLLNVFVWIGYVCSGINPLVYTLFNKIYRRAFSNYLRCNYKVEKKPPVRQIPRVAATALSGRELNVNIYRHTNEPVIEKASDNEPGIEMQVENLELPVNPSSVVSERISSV

Cc1ccc(Sc2ccccc2N2CCNCC2)c(C)c1.Cl
Ki: 180 nM
